Patent US7514452B2, “2-furancarboxylic acid hydrazides and pharmaceutical compositions containing the same” (Dainippon Pharmaceutical Co., Ltd, priority 2002, dated 2009)

Assays:
[1] = target: glucagon receptor (Rattus norvegicus, UniProt P30082); experiment: Experiment for glucagon binding inhibition, rat hepatic membrane (125I-glucagon); details: male SD rat hepatic membrane, 125I-glucagon 50 pM, 25° C. for 30 minutes; read-out: Glucagon binding inhibitory activity IC50 (nM) Rat
Procedure, shortened: (§1)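 Liver membranes from male SD rats or male ddY mice were incubated with 125I-glucagon and compound for 30 min at 25 °C. Bound radioactivity was collected on filters washed with pH 7.2 Tris-HCl and counted by γ counter, in duplicate. IC50 was taken from a pseudo Hill plot.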

[2] = target: glucagon receptor (Mus musculus, UniProt Q61606); experiment: Experiment for glucagon binding inhibition, mouse hepatic membrane (125I-glucagon); details: male ddY mouse hepatic membrane, 125I-glucagon 50 pM, 25° C. for 30 minutes; read-out: Glucagon binding inhibitory activity IC50 (nM) Mouse
Sequence of glucagon receptor (Mus musculus, UniProt Q61606) (Q61606 27-485): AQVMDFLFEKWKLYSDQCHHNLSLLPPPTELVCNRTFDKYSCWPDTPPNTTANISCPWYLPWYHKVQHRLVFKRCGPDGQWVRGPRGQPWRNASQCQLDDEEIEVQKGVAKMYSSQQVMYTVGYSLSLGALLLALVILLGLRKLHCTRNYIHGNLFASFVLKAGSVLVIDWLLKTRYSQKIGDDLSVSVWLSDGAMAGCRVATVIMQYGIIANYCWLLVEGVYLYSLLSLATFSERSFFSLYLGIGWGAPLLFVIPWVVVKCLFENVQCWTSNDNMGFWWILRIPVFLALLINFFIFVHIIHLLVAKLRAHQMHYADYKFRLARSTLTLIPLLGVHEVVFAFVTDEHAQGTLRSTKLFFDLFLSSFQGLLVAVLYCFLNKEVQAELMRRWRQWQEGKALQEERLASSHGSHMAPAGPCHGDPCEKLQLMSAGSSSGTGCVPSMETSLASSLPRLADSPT
Procedure, shortened: as §1

Sequence of glucagon receptor (Rattus norvegicus, UniProt P30082) (P30082 27-485): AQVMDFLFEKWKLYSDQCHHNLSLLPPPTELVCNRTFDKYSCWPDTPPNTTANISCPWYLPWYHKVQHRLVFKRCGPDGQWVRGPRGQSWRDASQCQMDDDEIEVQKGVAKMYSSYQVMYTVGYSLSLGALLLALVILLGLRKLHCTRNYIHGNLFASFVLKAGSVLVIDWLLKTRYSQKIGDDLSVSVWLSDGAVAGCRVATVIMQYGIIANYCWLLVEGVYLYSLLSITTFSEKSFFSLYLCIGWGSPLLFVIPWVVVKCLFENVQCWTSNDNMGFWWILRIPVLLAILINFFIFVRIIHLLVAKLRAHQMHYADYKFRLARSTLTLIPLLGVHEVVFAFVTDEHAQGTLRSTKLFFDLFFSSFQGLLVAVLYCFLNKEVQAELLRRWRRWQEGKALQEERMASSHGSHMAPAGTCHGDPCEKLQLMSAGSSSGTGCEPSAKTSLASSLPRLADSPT

Row | SMILES | IC50 [1] [nM] | IC50 [2] [nM] | melting point [°C]
1 | C=CCOc1cccc(-c2ccoc2C(=O)NNC(=O)c2ccc(O)c([N+](=O)[O-])c2)c1 [Example 199, 3-[3-(2-Allyloxy)phenyl]-2-furancarboxylic acid 2-(4-hydroxy-3-nitrobenzoyl)hydrazide] | 99 | 75 | 126 to 131
2 | O=C(NNC(=O)c1occc1-c1cccc(OCc2cccc3ccccc23)c1)c1ccc(O)c([N+](=O)[O-])c1 [Example 203] | 7.9 | 7.7 | 152 to 153
3 | O=C(NNC(=O)c1occc1-c1cccc(OCc2ccc3ccccc3c2)c1)c1ccc(O)c([N+](=O)[O-])c1 [Example 204] | 3.6 | 5.4 | 198 to 199
4 | O=C(NNC(=O)c1occc1-c1ccc2[nH]ccc2c1)c1ccc(O)c([N+](=O)[O-])c1 [Example 207] | 8 | 9.5 | 129 to 131
5 | Cn1ccc2cc(-c3ccoc3C(=O)NNC(=O)c3ccc(O)c([N+](=O)[O-])c3)ccc21 [Example 208] | 290 | 270 | 185 to 187
6 | O=C(NNC(=O)c1occc1-c1cccc(OCCc2ccccc2)c1)c1ccc(O)c([N+](=O)[O-])c1 [Example 209, 3-(3-phenethyloxyphenyl)-2-furancarboxylic acid 2-(4-hydroxy-3-nitrobenzoyl)hydrazide] | 20 | 35 | 90 to 94
7 | O=C(NNC(=O)c1occc1-c1ccc(Cc2ccccc2)cc1)c1ccc(O)c([N+](=O)[O-])c1 [Example 210, 3-(4-benzylphenyl)-2-furancarboxylic acid 2-(4-hydroxy-3-nitrobenzoyl)hydrazide] | 3.9 | 7.9 | 154 to 157
8 | Cc1ccc(COc2ccc(-c3ccoc3C(=O)NNC(=O)c3ccc(O)c([N+](=O)[O-])c3)cc2)cc1 [Example 211] | 8.5 | 25 | 184 to 185
9 | Cc1ccccc1COc1ccc(-c2ccoc2C(=O)NNC(=O)c2ccc(O)c([N+](=O)[O-])c2)cc1 [Example 213] | 35 | 80 | 177 to 179
10 | Cc1cccc(COc2ccc(-c3ccoc3C(=O)NNC(=O)c3ccc(O)c([N+](=O)[O-])c3)cc2)c1 [Example 214] | 49 | 39 | 162 to 164
11 | O=C(NNC(=O)c1occc1-c1ccc2ccccc2c1)c1ccc(O)c([N+](=O)[O-])c1 [Example 217] | 60 | 37 | 135 to 139
12 | O=C(NNC(=O)c1occc1-c1cccc(-c2ccccc2)c1)c1ccc(O)c([N+](=O)[O-])c1 [Example 218] | 95 | 56 | 143 to 147
13 | O=C(NNC(=O)c1oc(Br)cc1-c1ccccc1)c1ccc(O)c([N+](=O)[O-])c1 [Example 222, 5-bromo-3-phenyl-2-furancarboxylic acid 2-(4-hydroxy-3-nitrobenzoyl)hydrazide] | 25 | 42 | 174 to 176
14 | Cc1cc(C)cc(COc2cccc(-c3ccoc3C(=O)NNC(=O)c3ccc(O)c([N+](=O)[O-])c3)c2)c1 [Example 223] | 12 | 26 | 178 to 180
15 | Cc1cccc(C)c1COc1cccc(-c2ccoc2C(=O)NNC(=O)c2ccc(O)c([N+](=O)[O-])c2)c1 [Example 224] | 27 | 48 | 100 to 101
16 | O=C(NNC(=O)c1occc1-c1cccc(Cc2ccccc2Cl)c1)c1ccc(O)c([N+](=O)[O-])c1 [Example 225] | 11 | 68 | 97 to 99
17 | CCOc1ccccc1Cc1cccc(-c2ccoc2C(=O)NNC(=O)c2ccc(O)c([N+](=O)[O-])c2)c1 [Example 226] | 21 | 31 | 87 to 89
18 | Cc1ccccc1Cc1cccc(-c2ccoc2C(=O)NNC(=O)c2ccc(O)c([N+](=O)[O-])c2)c1 [Example 229] | 28 | 58 | 135 to 138
19 | CC(c1ccccc1)c1cccc(-c2ccoc2C(=O)NNC(=O)c2ccc(O)c([N+](=O)[O-])c2)c1 (stereo not drawn) [Example 230] | 33 | 120 | 147 to 149
20 | O=C(NNC(=O)c1occc1-c1cccc(CCc2ccccc2)c1)c1ccc(O)c([N+](=O)[O-])c1 [Example 232] | 38 | 34 | 149 to 152
21 | COc1ccc(Cc2cccc(-c3ccoc3C(=O)NNC(=O)c3ccc(O)c([N+](=O)[O-])c3)c2)cc1 [Example 234] | 39 | 56 | 102 to 104
22 | Cc1cccc(Cc2cccc(-c3ccoc3C(=O)NNC(=O)c3ccc(O)c([N+](=O)[O-])c3)c2)c1 [Example 235] | 49 | 18 | 149 to 151
23 | Cc1ccc(-c2ccoc2C(=O)NNC(=O)c2ccc(O)c(C(F)(F)F)c2)cc1 [Example 240] | 300 | 180 | 120 to 123
24 | CCCc1ccc(-c2ccoc2C(=O)NNC(=O)c2ccc(O)c(C(F)(F)F)c2)cc1 [Example 242] | 89 | 180 | 112 to 114
25 | CCCCCOc1ccc(-c2ccoc2C(=O)NNC(=O)c2ccc(O)c(F)c2)cc1 [Example 243] | 380 | 290 | 103 to 106
26 | O=C(NNC(=O)c1occc1-c1ccc(OCc2ccccc2)cc1)c1ccc(O)c([N+](=O)[O-])c1 [Example 245] | 29 | 64 | 163 to 164
